Test results as given in ChEMBL document CHEMBL5137072, “Redox-Activatable Theranostic Co-Prodrug for Precise Tumor Diagnosis and Selective Combination Chemotherapy” (J Med Chem, 2022).
Activity calls are given as the source filed them. The rule behind the calls is not given here.

Key:
A549 [1] = assay: Induction of necrosis in human A549 cells xenografted in BALB/c mouse at 12 umol/kg, iv administered for 20 days and measured every 3 days for 21 days by H and E staining based assay; type: functional, organism-based; conditions: dose 12.0 µmol/kg, time 21.0 day
[2] = Stability of the compound in rat plasma assessed as prodrug release at 100 ug/ml measured for 8 to 12 hrs by HPLC analysis; type: ADME, cell-free; conditions: at 100 µg/mL, time 8-12 hrs
HFL1 [3] = assay: Synergistic antiproliferative activity against human HFL1 cells at 2.5 to 12.5 uM measured after 72 hrs in presence of SAHA by MTT assay; type: toxicity, cell-based; conditions: hfl1, 72 h, dose 2.5-12.5 µM
A549 [4] = assay: Induction of apoptosis in human A549 cells assessed as upregulation of cleaved-PARP level at 1 to 4 uM incubated for 72 hrs by Western blot analysis; type: functional, cell-based; conditions: dose 1-4 µM
HT-29 [5] = assay: Synergistic antiproliferative activity against human HT-29 cells at 2.5 to 12.5 uM measured after 72 hrs in presence of CDDO-Me by MTT assay; type: functional, cell-based; conditions: dose 2.5-12.5 µM
A549 [6] = assay: Induction of DNA damage in human A549 cells assessed as increase in H2AX level incubated for 72 hrs by Western blot analysis; type: functional, cell-based; conditions: dose 1-4 µM, DDE = dose-dependent effect
A549 [7] = assay: Induction of apoptosis in human A549 cells xenografted in BALB/c mouse at 12 umol/kg, iv administered for 20 days and measured every 3 days for 21 days by H and E staining based assay; type: functional; conditions: dose 12 µmol/kg, time 21 day
[8] = Drug distribution in BALB/c mouse xenografted with human A549 cells assessed as increase in fluorescence in tumor signal at 20 mg/kg, iv measured after 4 to 24 hrs post injection; type: ADME, organism-based; conditions: in vivo, time 4-24 hrs
A549 [9] = assay: Induction of ROS accumulation in human A549 cells at 15 uM incubated for 2 hrs by DCFH2-DA staining based confocal microscopic analysis; type: functional, cell-based
HepG2 [10] = assay: Synergistic antiproliferative activity against human HepG2 cells at 2.5 to 12.5 uM measured after 72 hrs in presence of CDDO-Me by MTT assay; type: functional, cell-based; conditions: dose 2.5-12.5 µM
A549 [11] = assay: Antitumor activity at human A549 cells xenografted in BALB/c mouse assessed as reduction in tumor growth at 12 umol/kg, iv administered for 20 days and measured every 3 days for 21 days; type: functional, organism-based; conditions: dose 12.0 µmol/kg, time 21.0 day
A549 [12] = assay: Induction of necrosis in human A549 cells xenografted in BALB/c mouse at 12 umol/kg, iv administered for 20 days and measured every 3 days for 21 days by TUNEL assay; type: functional, organism-based; conditions: dose 12.0 µmol/kg, time 21.0 day
A549 [13] = assay: Induction of apoptosis in human A549 cells assessed as upregulation of Bax level at 1 to 4 uM incubated for 72 hrs by Western blot analysis; type: functional, cell-based; conditions: dose 1-4 µM
L02 [14] = assay: Synergistic antiproliferative activity against human L02 cells at 2.5 to 12.5 uM measured after 72 hrs in presence of CDDO-Me by MTT assay; type: toxicity, cell-based; conditions: l02, 72 h, dose 2.5-12.5 µM
[15] = molecular target: T1, Histone deacetylase (Homo sapiens) (UniProt Q13547+O15379+Q9UBN7+Q92769+Q9UQL6+Q8WUI4+Q9BY41+Q96DB2+P56524+Q9UKV0+Q969S8); assay: Inhibition of HDAC in human A549 cells assessed as activation of Bax expression at 1 to 4 uM incubated for 72 hrs in presence of SAHA by Western blot analysis; type: cell-based; conditions: dose 1-4 µM
A549 [16] = assay: Induction of apoptosis in human A549 cells assessed as upregulation of Mcl-1 level at 1 to 4 uM incubated for 72 hrs by Western blot analysis; type: functional, cell-based; conditions: dose 1-4 µM
HT-29 [17] = assay: Synergistic antiproliferative activity against human HT-29 cells at 2.5 to 12.5 uM measured after 72 hrs in presence of SAHA by MTT assay; type: functional, cell-based; conditions: dose 2.5-12.5 µM
L02 [18] = assay: Synergistic antiproliferative activity against human L02 cells at 2.5 to 12.5 uM measured after 72 hrs in presence of SAHA by MTT assay; type: toxicity, cell-based; conditions: l02, 72 h, dose 2.5-12.5 µM
[19] = molecular target: T2, Protein deacetylase HDAC6 (Homo sapiens) (UniProt Q9UBN7); assay: Inhibition of HDAC6 in human A549 cells assessed as reduction in HDAC expression at 1 to 4 uM incubated for 72 hrs by Western blot analysis; type: cell-based; conditions: dose 1-4 µM
T2 sequence (whole entry): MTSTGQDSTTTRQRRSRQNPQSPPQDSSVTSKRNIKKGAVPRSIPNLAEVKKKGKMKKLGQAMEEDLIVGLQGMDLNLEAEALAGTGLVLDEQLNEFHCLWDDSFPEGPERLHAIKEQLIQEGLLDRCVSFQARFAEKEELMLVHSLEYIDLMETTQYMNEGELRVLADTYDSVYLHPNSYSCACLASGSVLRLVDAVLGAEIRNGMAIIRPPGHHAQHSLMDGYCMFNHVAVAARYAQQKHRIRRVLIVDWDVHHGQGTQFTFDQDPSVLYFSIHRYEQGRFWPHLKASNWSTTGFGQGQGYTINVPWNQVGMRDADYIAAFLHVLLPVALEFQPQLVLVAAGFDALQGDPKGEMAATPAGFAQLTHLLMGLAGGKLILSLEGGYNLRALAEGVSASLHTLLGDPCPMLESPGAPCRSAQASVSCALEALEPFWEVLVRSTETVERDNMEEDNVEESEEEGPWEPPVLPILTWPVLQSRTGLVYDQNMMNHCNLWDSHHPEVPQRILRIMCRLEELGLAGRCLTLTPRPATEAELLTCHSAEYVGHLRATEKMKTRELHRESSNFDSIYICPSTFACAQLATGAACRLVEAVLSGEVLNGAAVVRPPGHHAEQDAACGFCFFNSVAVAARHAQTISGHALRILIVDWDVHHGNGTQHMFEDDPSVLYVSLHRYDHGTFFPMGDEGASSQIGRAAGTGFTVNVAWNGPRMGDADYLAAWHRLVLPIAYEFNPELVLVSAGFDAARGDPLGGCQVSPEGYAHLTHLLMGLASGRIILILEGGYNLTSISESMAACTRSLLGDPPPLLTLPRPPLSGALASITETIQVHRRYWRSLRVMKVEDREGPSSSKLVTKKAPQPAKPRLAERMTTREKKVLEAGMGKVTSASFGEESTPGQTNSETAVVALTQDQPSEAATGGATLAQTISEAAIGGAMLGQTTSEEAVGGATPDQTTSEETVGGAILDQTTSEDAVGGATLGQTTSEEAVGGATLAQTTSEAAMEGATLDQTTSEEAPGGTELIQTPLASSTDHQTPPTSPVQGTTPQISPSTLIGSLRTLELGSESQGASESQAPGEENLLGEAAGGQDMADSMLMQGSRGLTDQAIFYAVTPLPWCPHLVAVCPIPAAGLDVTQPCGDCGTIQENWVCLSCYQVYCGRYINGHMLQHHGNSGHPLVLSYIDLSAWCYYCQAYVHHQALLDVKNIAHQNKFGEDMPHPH

A549 [20] = assay: Induction of apoptosis in human A549 cells xenografted in BALB/c mouse at 12 umol/kg, iv administered for 20 days and measured every 3 days for 21 days by TUNEL assay; type: functional, organism-based; conditions: dose 12.0 µmol/kg, time 21.0 day
[21] = Stability of the compound in rat plasma assessed as prodrug release at 100 ug/ml measured for 8 hrs by HPLC analysis; type: ADME, cell-free; conditions: at 100 µg/mL
[22] = Toxicity in ICR mouse assessed as effect on AST level at 12 umol/kg, ip measured after 12 hrs; type: organism-based; conditions: in vivo, dose 12 µmol/kg
A549 [23] = assay: Induction of mitochondrial membrane depolarization in human A549 cells at 15 uM incubated for 2 hrs by JC-1 staining based analysis; type: functional, cell-based
[24] = Toxicity in ICR mouse assessed as effect on ALT level at 12 umol/kg, ip measured after 12 hrs; type: organism-based; conditions: in vivo, dose 12 µmol/kg
[25] = molecular target: T1, Histone deacetylase (Homo sapiens); assay: Inhibition of HDAC in human A549 cells assessed as activation of Bax expression at 1 to 4 uM incubated for 72 hrs in presence of CDDO-Me by Western blot analysis; type: cell-based; conditions: dose 1-4 µM
[26] = Toxicity in ICR mouse assessed as accumulation of lipid droplets in liver at 12 umol/kg, ip measured after 12 hrs by H and E staining based analysis; type: organism-based; conditions: in vivo, dose 12 µmol/kg
MCF7 [27] = assay: Synergistic antiproliferative activity against human MCF7 cells at 2.5 to 12.5 uM measured after 72 hrs in presence of SAHA by MTT assay; type: functional, cell-based; conditions: dose 2.5-12.5 µM
A549 [28] = assay: Synergistic antiproliferative activity against human A549 cells at 2.5 to 12.5 uM measured after 72 hrs in presence of SAHA by MTT assay; type: functional, cell-based; conditions: dose 2.5-12.5 µM
HepG2 [29] = assay: Synergistic antiproliferative activity against human HepG2 cells at 2.5 to 12.5 uM measured after 72 hrs in presence of SAHA by MTT assay; type: functional, cell-based; conditions: dose 2.5-12.5 µM
[30] = Toxicity in BALB/c mouse xenografted with human A549 cells assessed as change in body weight at 12 umol/kg, iv administered for 20 days and measured every 3 days for 21 days; type: organism-based; conditions: in vivo, 504 h, dose 12 µmol/kg, time 21 day
MCF7 [31] = assay: Synergistic antiproliferative activity against human MCF7 cells at 2.5 to 12.5 uM measured after 72 hrs in presence of CDDO-Me by MTT assay; type: functional, cell-based; conditions: dose 2.5-12.5 µM
[32] = Drug localization in mitochondria of human A549 cells measured after 4 hrs by Mito Tracker Green FM based confocal laser scanning microscopy analysis; type: ADME; conditions: a549, 4 h
HFL1 [33] = assay: Synergistic antiproliferative activity against human HFL1 cells at 2.5 to 12.5 uM measured after 72 hrs in presence of CDDO-Me by MTT assay; type: toxicity, cell-based; conditions: hfl1, 72 h, dose 2.5-12.5 µM
A549 [34] = assay: Synergistic antiproliferative activity against human A549 cells at 2.5 to 12.5 uM measured after 72 hrs in presence of CDDO-Me by MTT assay; type: functional, cell-based; conditions: dose 2.5-12.5 µM
A549 [35] = assay: Antitumor activity at human A549 cells xenografted in BALB/c mouse assessed as reduction in tumor growth at 12 umol/kg, iv administered for 20 days and measured every 3 days for 21 days in presence of CDDO-Me; type: functional, organism-based; conditions: dose 12.0 µmol/kg, time 21.0 day
[36] = Toxicity in ICR mouse assessed as effect on ALT level at 12 umol/kg, ip measured after 12 hrs in presence of CDDO-Me; type: organism-based; conditions: in vivo, dose 12 µmol/kg
[37] = Toxicity in ICR mouse assessed as effect on AST level at 12 umol/kg, ip measured after 12 hrs in presence of CDDO-Me; type: organism-based; conditions: in vivo, dose 12 µmol/kg

## COC(=O)[C@]12CCC(C)(C)C[C@H]1[C@H]1C(=O)C=C3[C@@]4(C)C(ONC(=O)CCCCCCC(=O)Nc5ccccc5)C(C#N)=C(OCc5ccc(OC(=O)C(C)SCCCSC(C)C(=O)Oc6ccc7c(c6)OC6=C(/C=C/C8=[N+](CCCc9cn(CCOCCOCCNC(=O)CCCC[C@H]%10SC[C@H]%11NC(=O)N[C@H]%11%10)nn9)c9ccc%10ccccc%10c9C8(C)C)CCCC6=C7)cc5)C(C)(C)[C@@H]4CC[C@@]3(C)[C@]1(C)CC2.[I-] (some centres undefined)
A549 [1]
  Activity: Active
[2]
  Drug metabolism: 20%
HFL1 [3]
  Activity: Non-Toxic
A549 [4]
  Activity: Active
HT-29 [5]
  Activity: Active
A549 [6]
  Activity: Dde
A549 [7]
  Activity: 53.3%
[8]
  Drug uptake: Active
A549 [9]
  Activity: Active
HepG2 [10]
  Activity: Active
A549 [11]
  Activity: Active
A549 [12]
  Activity: Active
A549 [13]
  Activity: Active
L02 [14]
  Activity: Non-Toxic
[15]
  inhibition: Active
A549 [16]
  Activity: Active
HT-29 [17]
  Activity: Active
L02 [18]
  Activity: Non-Toxic
[19]
  inhibition: Active
A549 [20]
  Activity: Active
[21]
  Drug metabolism: < 10%
[22]
  Activity: Non-Toxic
A549 [23]
  Activity: Active
[24]
  Activity: Non-Toxic
[25]
  inhibition: Active
[26]
  Activity: Non-Toxic
MCF7 [27]
  Activity: Active
A549 [28]
  Activity: Active
HepG2 [29]
  Activity: Active
[30]
  Activity: Non-Toxic
MCF7 [31]
  Activity: Active
[32]
  Drug uptake: Active
HFL1 [33]
  Activity: Non-Toxic
A549 [34]
  Activity: Active

## O=C(CCCCCCC(=O)Nc1ccccc1)NO [VORINOSTAT]
A549 [35]
  Activity: Active
L02 [14]
  Activity: Non-Toxic
[36]
  Activity: Toxic
[37]
  Activity: Toxic
HFL1 [33]
  Activity: Non-Toxic
